According to patent US6841701B2, “Inhibitors for the blood-clotting factor Xa” (Curacyte AG, priority 2000, dated 2005):
Where a name gives a salt, the structure may show the parent alone. Read-outs that look alike come from different tables or passages of the source.

Columns and labels:
F Xa = F Xa (Homo sapiens, UniProt P00742); conditions: cited from earlier work
human citrate plasma [1] = experiment: Inhibition of the coagulation of human plasma: activated partial thromboplastin time (aPTT); format: biochemical
Description: (§1) Determination of the Inhibition of Coagulation
(§2) For the determination of the prothrombin time (PT), 100 μl of thromboplastin (Dade, Unterschleiβheim) and 100 μl of inhibitor, dissolved in CaCl2 (0.05 M, 5% ethanol) were incubated at 37° C. for 2 min and the coagulation was started by addition of 100 μl of human citrate plasma. For the determination of the activated partial thromboplastin time (aPTT), 100 μl of human citrate plasma were incubated with 100 μl of aPTT reagent (Roche Diagnostics, Mannheim) at 37° C. for 3 min and the coagulation was started by addition of 100 μl of inhibitor, dissolved in CaCl2 (0.05 M, 5% ethanol). The coagulation times were determined using the Thrombotrack coagulometer (Immuno, Heidelberg).

human citrate plasma [2] = experiment: Inhibition of the coagulation of human plasma: prothrombin time (PT); format: biochemical
Description: as §1, §2

Sequence of F Xa (P00742 235-488 limits assumed): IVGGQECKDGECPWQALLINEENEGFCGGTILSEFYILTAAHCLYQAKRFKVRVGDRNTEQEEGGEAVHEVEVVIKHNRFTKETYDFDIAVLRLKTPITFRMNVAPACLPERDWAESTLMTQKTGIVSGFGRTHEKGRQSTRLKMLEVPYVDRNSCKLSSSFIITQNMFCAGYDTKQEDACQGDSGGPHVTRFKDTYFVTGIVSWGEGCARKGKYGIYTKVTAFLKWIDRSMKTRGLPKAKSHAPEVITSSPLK
Sequence of F Xa (P00742 41-179 partner limits assumed): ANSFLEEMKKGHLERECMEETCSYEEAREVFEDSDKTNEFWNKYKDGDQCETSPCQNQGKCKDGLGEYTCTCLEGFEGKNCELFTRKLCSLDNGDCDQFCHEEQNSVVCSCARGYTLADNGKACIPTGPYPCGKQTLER

In the case of `N=C(N)c1ccc(C=C2CCCCC(=Cc3ccc(C(=N)N)cc3)C2=O)cc1` [BABCH], the Ki (F Xa; literature) is listed as 13 nM.

In the case of `N=C(N)c1ccc(CNC(=O)CNC(=O)[C@@H](COCc2ccccc2)NS(=O)(=O)Cc2ccccc2)cc1` [Benzylsulfonyl-D-Ser(Bz)-Gly-4-amidinobenzylamide×TFA], the “Prolongation of the coagulation time (%) aPTT” value (shortened to “Prolongation … (%) aPTT”) (human citrate plasma [1]; Concentration 0.1 μM) is reported as 111%, the “Prolongation … (%) aPTT” value (human citrate plasma [1]; Concentration 0.21 μM) is reported as 122% and the “Prolongation … (%) aPTT” value (human citrate plasma [1]; Concentration 0.42 μM) is reported as 146%. The “Prolongation … (%) aPTT” value (human citrate plasma [1]; Concentration 0.83 μM) was 185%, the “Prolongation … (%) aPTT” value (human citrate plasma [1]; Concentration 1.7 μM) was 260% and the “Prolongation … (%) aPTT” value (human citrate plasma [1]; Concentration 3.3 μM) was 385%. For the same compound, the “Prolongation of the coagulation time (%) PT” value (“Prolongation … (%) PT” below) (human citrate plasma [2]; Concentration 0.1 μM) was 119%, the “Prolongation … (%) PT” value (human citrate plasma [2]; Concentration 0.21 μM) was 127% and the “Prolongation … (%) PT” value (human citrate plasma [2]; Concentration 0.42 μM) was 153%. For the same compound, the “Prolongation … (%) PT” value (human citrate plasma [2]; Concentration 0.83 μM) was 198%, the “Prolongation … (%) PT” value (human citrate plasma [2]; Concentration 1.7 μM) was 266% and the “Prolongation … (%) PT” value (human citrate plasma [2]; Concentration 3.3 μM) was 386%.

In the case of `N=C(N)c1ccc(CNC(=O)[C@@H]2CCN2C(=O)[C@H](NCC(=O)O)C2CCCCC2)cc1` [melagatran], the Ki (F Xa; literature (Gustafsson et al. 1996)) is given as 2800 nM.
